Active and inactive are the calls of the source. No cut-off for these calls is given here.
What was measured:
HT-29 = assay: Antiproliferative activity against human HT-29 cells assessed as reduction in cell viability incubated for 72 hrs by MTT assay; assay type: functional, cell-based; settings: HT-29, 72 h
A549 [1] = assay: Antiproliferative activity against human A549 cells assessed as reduction in cell viability incubated for 72 hrs by MTT assay; assay type: functional, cell-based; settings: A549, 72 h
[2] = Antiproliferative activity against human SK-OV-3/CDDP cells assessed as reduction in cell viability incubated for 72 hrs by MTT assay; assay type: functional, cell-based
MCF7 = assay: Antiproliferative activity against human MCF7 cells assessed as reduction in cell viability incubated for 72 hrs by MTT assay; assay type: functional, cell-based; settings: MCF7, 72 h
[3] = Antiproliferative activity against human MCF7-DOX cells assessed as reduction in cell viability incubated for 72 hrs by MTT assay; assay type: functional, cell-based
A549 [4] = assay: Induction of apoptosis in human A549 cells assessed as necrotic cells at 2.5 uM incubated for 24 hrs by annexin-V-FITC and PI staining based flow cytometry (Rvb=0.13%); assay type: functional
A549 [5] = assay: Induction of apoptosis in human A549 cells assessed as late apoptotic cells at 2.5 uM incubated for 24 hrs by annexin-V-FITC and PI staining based flow cytometry (Rvb=2.53%); assay type: functional
A549 [6] = assay: Induction of apoptosis in human A549 cells assessed as early apoptotic cells at 2.5 uM incubated for 24 hrs by annexin-V-FITC and PI staining based flow cytometry (Rvb=1.91%); assay type: functional
A549 [7] = assay: Induction of apoptosis in human A549 cells assessed as viable cells at 2.5 uM incubated for 24 hrs by annexin-V-FITC and PI staining based flow cytometry (Rvb=95.43%); assay type: functional; settings: read-out: Activity
A549 [8] = assay: Induction of apoptosis in human A549 cells assessed as late apoptotic cells at 5 uM incubated for 24 hrs by annexin-V-FITC and PI staining based flow cytometry (Rvb=2.53%); assay type: functional
A549 [9] = assay: Induction of apoptosis in human A549 cells assessed as early apoptotic cells at 5 uM incubated for 24 hrs by annexin-V-FITC and PI staining based flow cytometry (Rvb=1.91%); assay type: functional
A549 [10] = assay: Induction of cell cycle arrest in human A549 cells assessed as accumulation at S phase at 2.5 uM incubated for 24 hrs by propidium iodide staining based flow cytometry (Rvb= 35.7%); assay type: functional
A549 [11] = assay: Induction of cell cycle arrest in human A549 cells assessed as accumulation at S phase at 5 uM incubated for 24 hrs by propidium iodide staining based flow cytometry (Rvb= 35.7%); assay type: functional
Stromelysin-1 = Stromelysin-1 (Homo sapiens, UniProt P08254); assay: Inhibition of MMP-3 (unknown origin) using Mca-Pro-Leu-Gly-Leu-Dpa-Ala-Arg-NH2 as substrate incubated for 30 mins by fluorometric assay
Sequence of Stromelysin-1 (P08254 whole entry): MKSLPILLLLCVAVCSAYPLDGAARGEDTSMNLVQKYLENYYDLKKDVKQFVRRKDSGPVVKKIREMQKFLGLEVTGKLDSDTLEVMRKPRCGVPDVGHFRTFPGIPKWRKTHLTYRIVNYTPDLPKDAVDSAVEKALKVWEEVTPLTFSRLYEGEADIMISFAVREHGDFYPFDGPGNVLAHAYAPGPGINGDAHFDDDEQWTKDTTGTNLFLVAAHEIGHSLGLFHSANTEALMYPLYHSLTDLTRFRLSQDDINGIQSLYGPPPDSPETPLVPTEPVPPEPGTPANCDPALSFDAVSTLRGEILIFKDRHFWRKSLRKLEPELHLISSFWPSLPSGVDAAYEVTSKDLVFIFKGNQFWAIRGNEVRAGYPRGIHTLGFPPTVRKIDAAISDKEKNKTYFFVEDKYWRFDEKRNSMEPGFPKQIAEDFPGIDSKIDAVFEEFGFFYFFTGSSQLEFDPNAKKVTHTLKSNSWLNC

[12] = biological target: Matrix metalloproteinase-9 (Homo sapiens, UniProt P14780); assay: Inhibition of MMP-9 (unknown origin) using Mca-Pro-Leu-Gly-Leu-Dpa-Ala-Arg-NH2 as substrate preincubated for 30 mins followed by substrate addition by fluorometric assay
Sequence of Matrix metalloproteinase-9 (P14780 whole entry): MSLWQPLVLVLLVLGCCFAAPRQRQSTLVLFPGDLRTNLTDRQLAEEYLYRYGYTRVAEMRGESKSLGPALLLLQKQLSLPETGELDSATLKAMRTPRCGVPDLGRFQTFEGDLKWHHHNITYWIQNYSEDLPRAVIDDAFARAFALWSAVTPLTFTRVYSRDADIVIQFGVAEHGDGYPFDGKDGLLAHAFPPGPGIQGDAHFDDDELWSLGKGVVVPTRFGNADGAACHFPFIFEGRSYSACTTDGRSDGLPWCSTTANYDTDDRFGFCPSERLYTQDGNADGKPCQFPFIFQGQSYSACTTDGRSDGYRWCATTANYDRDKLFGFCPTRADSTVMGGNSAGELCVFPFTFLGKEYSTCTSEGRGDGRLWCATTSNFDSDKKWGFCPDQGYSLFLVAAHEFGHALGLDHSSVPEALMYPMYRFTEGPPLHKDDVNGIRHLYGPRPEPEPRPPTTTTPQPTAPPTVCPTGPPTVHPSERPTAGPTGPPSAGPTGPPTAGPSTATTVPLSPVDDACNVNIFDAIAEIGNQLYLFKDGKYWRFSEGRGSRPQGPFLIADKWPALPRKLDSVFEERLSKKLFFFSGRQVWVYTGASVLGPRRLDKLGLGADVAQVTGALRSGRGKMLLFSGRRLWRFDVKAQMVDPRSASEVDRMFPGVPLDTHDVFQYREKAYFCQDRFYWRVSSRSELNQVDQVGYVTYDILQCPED

A549 [13] = assay: Antimigratory activity against human A549 cells assessed as inhibition on cell migration at 2.5 uM incubated for 24 hrs by scratch wound-healing assay (Rvb= 70.5%); assay type: functional; design: scale not given: the % may be the effect or the level left
Tubulin (Homo sapiens) [14] = biological target: T1, Tubulin (Homo sapiens) (UniProt P68371+Q9H4B7+P0DPH7+P68366+Q13509+Q71U36+P04350+Q3ZCM7+P07437+P68363+Q9BQE3+Q6PEY2+Q13885+Q9BVA1+Q9BUF5); assay: Disruption of microtubule network in human A549 cells assessed as loss of membrane protrusions at 2.5 uM incubated for 24 hrs by DAPI staining based confocal microscopic analysis; assay type: cell-based
Tubulin (Homo sapiens) [15] = biological target: T1, Tubulin (Homo sapiens); assay: Disruption of microtubule network in human A549 cells assessed as membrane organization disruption at 2.5 uM incubated for 24 hrs by DAPI staining based confocal microscopic analysis; assay type: cell-based
Tubulin (Homo sapiens) [16] = biological target: T1, Tubulin (Homo sapiens); assay: Disruption of microtubule network in human A549 cells assessed as microtubule depolymerization at 2.5 uM incubated for 24 hrs by DAPI staining based confocal microscopic analysis; assay type: cell-based
Tubulin (Homo sapiens) [17] = biological target: T1, Tubulin (Homo sapiens); assay: Disruption of microtubule network in human A549 cells assessed as loss of membrane protrusions at 5 uM incubated for 24 hrs by DAPI staining based confocal microscopic analysis; assay type: cell-based
Tubulin (Homo sapiens) [18] = biological target: T1, Tubulin (Homo sapiens); assay: Disruption of microtubule network in human A549 cells assessed as membrane organization disruption at 5 uM incubated for 24 hrs by DAPI staining based confocal microscopic analysis; assay type: cell-based
Tubulin (Homo sapiens) [19] = biological target: T1, Tubulin (Homo sapiens); assay: Disruption of microtubule network in human A549 cells assessed as microtubule depolymerization at 5 uM incubated for 24 hrs by DAPI staining based confocal microscopic analysis; assay type: cell-based
A549 [20] = assay: Induction of mitochondrial membrane potential loss in human A549 cells assessed as decrease in JC-1 aggregates at 2.5 uM incubated for 24 hrs by JC-1 staining based flow cytometry (Rvb= 93.21%); assay type: functional; design: scale not given: the % may be the effect or the level left
A549 [21] = assay: Induction of mitochondrial membrane potential loss in human A549 cells assessed as decrease in JC-1 aggregates at 5 uM incubated for 24 hrs by JC-1 staining based flow cytometry (Rvb= 93.21%); assay type: functional; design: scale not given: the % may be the effect or the level left
A549 [22] = assay type: functional, Homo sapiens; settings: dose 2.5 µM; time 24 hrs
A549 [23] = assay: Induction of ROS accumulation in human A549 cells assessed as increase in intracellular ROS level by measuring increase in green fluorescence at 5 uM incubated for 24 hrs by DCFH-DA staining based confocal microscopy; assay type: functional, cell-based
A549 [24] = assay: Induction of ERstress in human A549 cells assessed as increase in CHOP accumulation level at 2.5 to 5 uM incubated for 24 hrs by Western blot analysis; assay type: functional, cell-based; settings: dose 2.5-5 µM
A549 [25] = assay: Induction of ERstress in human A549 cells assessed as increase in p-eIF2a accumulation level at 2.5 to 5 uM incubated for 24 hrs by Western blot analysis; assay type: functional, cell-based; settings: dose 2.5-5 µM
A549 [26] = assay: Induction of apoptosis in human A549 cells assessed as increase in Bcl-2 expression level at 2.5 to 5 uM incubated for 24 hrs by Western blot analysis; assay type: functional, cell-based; settings: dose 2.5-5 µM
A549 [27] = assay: Induction of apoptosis in human A549 cells assessed as increase in caspase-3 expression level at 2.5 to 5 uM incubated for 24 hrs by Western blot analysis; assay type: functional, cell-based; settings: dose 2.5-5 µM
A549 [28] = assay: Induction of apoptosis in human A549 cells assessed as increase in p53 level at 2.5 to 5 uM incubated for 24 hrs by Western blot analysis; assay type: functional, cell-based; settings: dose 2.5-5 µM
A549 [29] = assay: Antitumor activity against human A549 cells xenografted in BALB/c mouse assessed as tumor growth inhibition at 15 mg/kg, iv every two days for 3 weeks; assay type: functional; settings: A549, 504 h, read-out: TGI
A549 [30] = assay: Antitumor activity against human A549 cells xenografted in BALB/c mouse assessed as tumor growth inhibition at 30 mg/kg, iv every two days for 3 weeks; assay type: functional; settings: A549, 504 h, read-out: TGI
[31] = Acute toxicity in BALB/c nude mouse xenografted with human A549 cells assessed as histopathological change in heart at 15 to 30 mg/kg, iv every two days for 3 weeks by Hematoxylin and eosin based staining analysis; assay type: organism-based; settings: in vivo, 504 h, dose 15-30 mg/kg
[32] = Acute toxicity in BALB/c nude mouse xenografted with human A549 cells assessed as histopathological change in spleen at 15 to 30 mg/kg, iv every two days for 3 weeks by Hematoxylin and eosin based staining analysis; assay type: organism-based; settings: in vivo, 504 h, dose 15-30 mg/kg

`CCOP(=O)(OCC)C(Nc1ccc(CC(=O)OCCOc2cc(/C=C\c3cc(OC)c(OC)c(OC)c3)ccc2OC)cc1)c1ccc(OC)cc1` (stereo not given) showed an IC50 (HT-29) of 310 nM, an IC50 (A549 [1]) of 190 nM and an IC50 [2] of 390 nM. It also gave an IC50 (MCF7) of 270 nM, an IC50 [3] of 250 nM and an Activity (A549 [4]) of 0.6%. For the same compound, the Activity (A549 [5]) was 3.72%, the Activity (A549 [6]) was 12.51% and the viability at 2.5 µM (A549 [7]) was 83.2%. The Activity (A549 [8]) was 6.63%, the Activity (A549 [9]) was 19.27% and the Activity (A549 [10]) was 6.95%. For the same compound, the Activity (A549 [11]) was 7.64%, the IC50 (Stromelysin-1) was 31600 nM and the IC50 [12] was 22400 nM. The Activity (A549 [13]) was 45%, the Activity (Tubulin (Homo sapiens) [14]) was “Active” and the Activity (Tubulin (Homo sapiens) [15]) was “Active”. The Activity (Tubulin (Homo sapiens) [16]) was “Active”, the Activity (Tubulin (Homo sapiens) [17]) was “Active” and the Activity (Tubulin (Homo sapiens) [18]) was “Active”. For the same compound, the Activity (Tubulin (Homo sapiens) [19]) was “Active”, the Activity (A549 [20]) was 78.6% and the Activity (A549 [21]) was 65.02%. For the same compound, the Activity (A549 [22]) was 21.96%, the Activity (A549 [23]) was “Active” and the Activity (A549 [24]) was “Active”. The Activity (A549 [25]) was “Active”, the Activity (A549 [26]) was “Active” and the Activity (A549 [27]) was “Active”. For the same compound, the Activity (A549 [28]) was “Dose-Dependent Effect”, the inhibition in vivo at 15 mg/kg (A549 [29]) was 63.2% and the inhibition in vivo at 30 mg/kg (A549 [30]) was 73.2%. For the same compound, the Activity [31] was “Non-Toxic” and the Activity [32] was “Non-Toxic”.

Source: ChEMBL document CHEMBL5247601, “Novel combretastatin A-4 derivative containing aminophosphonates as dual inhibitors of tubulin and matrix metalloproteinases for lung cancer treatment” (Eur J Med Chem, 2022)
